Target: HA-GST-Rheb (GTP-γ-S loaded) activating mTORC1 (Homo sapiens (Human), UniProt Q15382)
Experiment: Rheb-dependent in vitro kinase assay (Rheb-IVK; LanthaScreen or Western readout)
Assay type: biochemical
Conditions: Rheb-dependent in vitro kinase assay; read-out: IVK IC50

Chain of HA-GST-Rheb (GTP-γ-S loaded) activating mTORC1 (Q15382 1-181): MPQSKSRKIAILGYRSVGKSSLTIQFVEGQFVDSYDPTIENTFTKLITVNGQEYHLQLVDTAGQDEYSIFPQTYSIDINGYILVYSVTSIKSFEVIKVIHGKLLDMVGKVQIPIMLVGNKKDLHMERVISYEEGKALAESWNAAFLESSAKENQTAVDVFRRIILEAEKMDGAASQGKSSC

| IC50 [µM] | SMILES |
| --- | --- |
| > 100 | [O-][S+](c1ccccc1Cl)c1cccc2[nH]ccc12 (stereo not drawn) [I-231] |
| > 100 | N#Cc1ccccc1COc1c(Cl)c(Cl)cc2[nH]c(CO)nc12 [I-472] |
| > 100 | Nc1nccc(COc2c(Cl)c(Cl)cc3[nH]c(CO)nc23)n1 [I-423] |
| 300 to 800 | OCc1cc2c(Oc3ccccc3F)cccc2[nH]1 [I-277, (4-(2-fluorophenoxy)-1H-indol-2-yl)methanol] |
| > 100 | O=C(O)c1cccc(Cn2c(-c3ncco3)nc3cc(Cl)c(Cl)cc32)c1 [I-446] |
| > 100 | CCOCc1nc2c(Cl)cc(OCc3ccccc3)cc2n1CC [I-415] |
| > 100 | Clc1cccc(Cl)c1Oc1cccc2[nH]ccc12 [I-228] |
| > 100 | Cn1c(CO)cc2c(Oc3ccccc3)cc(Cl)cc21 [I-281] |
| > 100 | c1cnc(Nc2cccc3[nH]ccc23)nc1 [I-189] |
| > 100 | Cn1c(CO)cc2c(Sc3ccc(Cl)cc3)cc(Cl)cc21 [I-206] |
| > 100 | Clc1ccc(Sc2cccc3[nH]ccc23)cc1Cl [I-211] |
| > 100 | Cn1c(CO)nc2cc(Cl)c(OCc3ccccc3)cc21 [I-426] |
| 100 to 300 | COc1ccc(Sc2cc(Cl)cc3[nH]c(C(=O)O)cc23)cc1OC [I-138, 6-chloro-4-(3,4-dimethoxyphenylthio)-1H-indole-2-carboxylic acid] |
| > 100 | OCc1cc2c(Br)cc(OCc3ccccc3)cc2n1Cc1ccccc1 [I-224] |
| > 100 | OCc1cc2c(OCc3ccccc3)cc(Cl)cc2[nH]1 [I-294] |
| > 100 | OCc1nc2c(Oc3ccc(Cl)cc3)cccc2n1Cc1nc[nH]n1 [I-408] |
| > 100 | N#Cc1cccc(Cn2c(-c3ncco3)nc3cc(Cl)c(Cl)cc32)c1 [I-463] |
| > 100 | Nc1nonc1-c1nc2cc(Cl)c(Cl)cc2n1Cc1ccccc1 [I-491] |
| > 100 | COC(=O)c1cc2c(Sc3ccc(Cl)cc3Cl)cc(Cl)cc2n1Cc1ccc(Br)cc1 [I-104] |
| 100 to 300 | Cn1c(CO)nc2c(OC[C@H]3CCCC[C@@H]3O)c(Cl)c(Cl)cc21 (racemic) [I-387, (+,−)-trans-2-((5,6-dichloro-2-(hydroxymethyl)-1-methyl-1H-benzo[d]imidazol-4-yloxy)methyl)cyclohexanol] |

| IC50 [µM] | SMILES |
| --- | --- |
| > 100 | CCOCc1nc2cc(OCc3ccccc3)cc(Cl)c2n1CC [I-414] |
| > 100 | Clc1ccc(Sc2cc(Sc3ccc(Cl)cc3)c3cc[nH]c3c2)cc1 [I-200] |
| > 100 | Cn1c(CO)cc2c(Oc3ccccc3)cccc21 [I-280] |
| > 100 | OCc1nc2cc(OCc3ccccc3)c(Cl)cc2n1Cc1ccccc1 [I-466] |
| > 100 | OCc1ccc(Sc2cccc3[nH]ccc23)cc1 [I-183] |
| > 100 | Clc1ccc2c(c1)nc(-c1ncco1)n2Cc1ccc(-c2nn[nH]n2)cc1 [I-410] |
| > 100 | CCn1c(CO)nc2cc(OCc3ccccc3Cl)c(Cl)cc21 [I-432] |
| 100 to 300 | Clc1ccc2[nH]c(-c3ncco3)nc2c1Oc1ccccc1 [I-427, 2-(5-chloro-4-phenoxy-1H-benzo[d]imidazol-2-yl)oxazole] |
| > 100 | Cc1cc(Oc2ccccc2)cc2c1cc(CO)n2C [I-245] |
| > 100 | CCn1c(CO)nc2cc(OCc3ccccc3)cc(Cl)c21 [I-412] |
| > 100 | CCn1c(CO)nc2cc(Oc3ccccc3)c(Cl)cc21 [I-455] |
| > 100 | Nc1ncncc1COc1c(Cl)c(Cl)cc2[nH]c(CO)nc12 [I-409] |
| 100 to 300 | OCc1nc2c(Oc3ccccc3)c(Cl)ccc2[nH]1 [I-418, (5-chloro-4-phenoxy-1H-benzo[d]imidazol-2-yl)methanol] |
| > 100 | CCn1c(CO)nc2cc(Cl)c(OCc3ccccc3Cl)cc21 [I-433] |
| > 100 | CCn1c(CO)nc2cc(Cl)c(Oc3ccccc3)cc21 [I-456] |
| > 100 | OCc1nc2c(Br)cc(Oc3ccccc3)cc2n1Cc1nc[nH]n1 [I-406] |
| > 100 | O=C(O)c1cc(Sc2ccc(Cl)cc2)c2cc[nH]c2c1 [I-193] |
| > 100 | Cn1ccc2c(NC3CCCNC3)cccc21 (stereo not drawn) [I-298] |
| > 100 | OCc1nc2cc(Cl)c(OCc3ccccc3)cc2n1Cc1nc[nH]n1 [I-402] |

Reference: US11339144B2 (Navitor Pharmaceuticals, Inc., priority 2017, dated 2022)
